Measurements reported in patent US8895585B2, “Nicotinamide derivative or salt thereof” (FUJIFILM Corporation, priority 2010, dated 2014).

Each molecule was assayed against T1, glutathione S-transferase (GST)-fused full-length human Syk protein (Homo sapiens, UniProt P43405) (assay: Syk enzyme assay). Conditions: Syk enzyme assay, Test Example 1; read-out: IC50 of Syk-inhibitory activity.
T1 construct: (GST)-fused full-length human Syk protein; GST (glutathione S-transferase); purchased Carna Biosciences
Assay type: biochemical
In short: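 GST-tagged full-length human Syk (baculovirus) preincubated with compound 15 min at room temperature (pH 7.0, 10 mM MgCl2), then reacted 40 min with 0.4 μM biotinylated peptide substrate and 27 μM ATP (final). Phosphorylation read by HTRF (615/665 nm) after EDTA stop; IC50 reported.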

With CC(C)C[C@H](CN)Nc1nc(Nc2cncc3ccccc23)c(C(N)=O)cc1F [Example 006-231] as the molecule, how does the IC50 read?
Its IC50 is < 0.01 µM.

With NC(=O)c1cc(F)c(N[C@@H]2CCCC[C@@H]2N)nc1Nc1cnc2c(NC(=O)c3ccccn3)cccc2c1 (relative stereo) [Example 41-10, 6-(cis-2-aminocyclohexylamino)-5-fluoro-2-((8-picolinamidequinolin-3-yl)amino)nicotinamide] as the molecule, how does the IC50 read?
The IC50 was < 0.01 µM.

With COCCOCCOc1cnc2cc(Nc3nc(N[C@@H]4CCCC[C@@H]4N)c(F)cc3C(N)=O)ccc2n1 (relative stereo) [Example 004-179, 6-(cis-2-aminocyclohexylamino)-5-fluoro-2-((2-(2-(2-methoxyethoxy)ethoxy)quinoxalin-6-yl)amino)nicotinamide] as the molecule, how does the IC50 read?
Its IC50 is < 0.01 µM.

C[C@H](N)[C@@H](C)Nc1nc(Nc2ccnc(-n3nccn3)c2)c(C(N)=O)cc1F (racemic) [Example 006-189, 2-((2-(2H-1,2,3-triazol-2-yl)pyridin-4-yl)amino)-6-(((2R,3S)-3-aminobutan-2-yl)amino)-5-fluoronicotinamide 2-((2-(2H-1,2,3-triazol-2-yl)pyridin-4-yl)amino)-6-(((2S,3R)-3-aminobutan-2-yl)amino)-5-fluoronicotinamide] was tested. Which IC50 did it give?
Its IC50 is 0.01 to 0.05 µM.

Which IC50 does the source give for CC[C@H](N)C(C)Nc1nc(Nc2ccc3ncccc3c2)c(C(N)=O)cc1F (stereo partly drawn) [Example 006-149] here?
The IC50 was 0.01 to 0.05 µM.

With CC[C@@H](Nc1nc(Nc2cnc(OC)c(-n3nccn3)c2)c(C(N)=O)cc1F)[C@H](C)N [Example 006-273, 6-(((2S,3R)-2-aminopentan-3-yl)amino)-5-fluoro-2-((6-methoxy-5-(2H-1,2,3-triazol-2-yl)pyridin-3-yl)amino)nicotinamide] as the molecule, how does the IC50 read?
The IC50 was 0.1 to 1 µM.

Which IC50 does the source give for CC[C@@H](Nc1nc(Nc2ccnc(-n3nccn3)c2)c(C(N)=O)cc1F)[C@H](C)N [Example 006-254, 2-((2-(2H-1,2,3-triazol-2-yl)pyridin-4-yl)amino)-6-(((2S,3R)-2-aminopentan-3-yl)amino)-5-fluoronicotinamide] here?
The IC50 was 0.01 to 0.05 µM.

NC(=O)c1cc(F)c(N[C@@H]2CCCC[C@@H]2N)nc1Nc1cncc(-c2ccc(OCCN3CCOCC3)cc2)c1 (relative stereo) [Example 004-112, 6-(cis-2-aminocyclohexylamino)-5-fluoro-2-((5-(4-(2-morpholinoethoxy)phenyl)pyridin-3-yl)amino)nicotinamide] was tested. Which IC50 did it give?
The IC50 was < 0.01 µM.

Which IC50 does the source give for NC(=O)c1cc(F)c(NC2CCCCC2N)nc1Nc1cnc(N2CCOCC2)c(-c2ccoc2)c1 (stereo not drawn) [Example 002-072] here?
The IC50 was 0.01 to 0.05 µM.

Which IC50 does the source give for COc1ncc(Nc2nc(N[C@H](CC3CC3)[C@H](C)N)c(F)cc2C(N)=O)cc1-n1nccn1 [Example 006-393, 6-(((2R,3S)-3-amino-1-cyclopropylbutan-2-yl)amino)-5-fluoro-2-((6-methoxy-5-(2H-1,2,3-triazol-2-yl)pyridin-3-yl)amino)nicotinamide] here?
Its IC50 is 0.01 to 0.05 µM.

COC(C)CCOc1ncc(Nc2nc(N[C@@H]3CCCC[C@@H]3N)c(F)cc2C(N)=O)c2ccccc12 (relative stereo) [Example 004-151, 6-(cis-2-aminocyclohexylamino)-5-fluoro-2-((1-(3-methoxybutoxy)isoquinolin-4-yl)amino)-nicotinamide] was tested. Which IC50 did it give?
The IC50 was 0.1 to 1 µM.

Which IC50 does the source give for CCOCCOCCn1ncc2c(Nc3nc(NC4CCCCC4N)c(F)cc3C(N)=O)cccc21 (stereo not drawn) [Example 002-031] here?
The IC50 was < 0.01 µM.

With NC(=O)c1cc(F)c(N[C@@H]2CCCC[C@@H]2N)nc1Nc1ccc2nc(-n3cccn3)cnc2c1 (relative stereo) [Example 004-208, 2-((2-(1H-pyrazol-1-yl)quinoxalin-6-yl)amino)-6-(cis-2-aminocyclohexylamino)-5-fluoronicotinamide] as the molecule, how does the IC50 read?
Its IC50 is < 0.01 µM.

NC(=O)c1cc(F)c(NC2CCCCC2N)nc1Nc1cncc(NC(=O)c2ccc3c(c2)OCCO3)c1 (stereo not drawn) [Example 027-035] was tested. Which IC50 did it give?
The IC50 was 0.01 to 0.05 µM.

How did the IC50 turn out when NC(=O)c1cc(F)c(NC2CCCCC2N)nc1Nc1cccc2c1cnn2CC1CC1 (stereo not drawn) [Example 002-028] was run?
The IC50 was < 0.01 µM.

With COc1cc(Nc2nc(NCCc3c[nH]c4ccccc34)c(F)cc2C(N)=O)cc(OC)c1 [Example 020-002] as the molecule, how does the IC50 read?
Its IC50 is 0.1 to 1 µM.

For NC(=O)c1cc(F)c(N[C@@H]2CCCC[C@@H]2N)nc1Nc1cncc(CO)c1 (relative stereo) [Example 004-193, 6-(cis-2-aminocyclohexylamino)-5-fluoro-2-((5-(hydroxymethyl)pyridin-3-yl)amino)nicotinamide], which IC50 is on record?
The IC50 was 0.05 to 0.1 µM.

For NC(=O)c1cc(F)c(N[C@H](Cc2ccccc2)c2ncc[nH]2)nc1Nc1ccc2ncccc2c1 [Example 012-029], which IC50 is on record?
The IC50 was 0.1 to 1 µM.

For COCCOc1ccc2cc(Nc3nc(N[C@H](C)[C@H](C)N)c(F)cc3C(N)=O)cnc2c1 (racemic) [Example 006-183, 6-(((2R,3S)-3-aminobutan-2-yl)amino)-5-fluoro-2-((7-(2-methoxyethoxy)quinolin-3-yl)amino)nicotinamide 6-(((2S,3R)-3-aminobutan-2-yl)amino)-5-fluoro-2-((7-(2-methoxyethoxy)quinolin-3-yl)amino)nicotinamide], which IC50 is on record?
Its IC50 is < 0.01 µM.

With NC(=O)c1cc(F)c(N[C@@H]2CCCC[C@@H]2N)nc1Nc1cncc(-n2ccnc2)c1 (relative stereo) [Example 006-127, 2-((5-(1H-imidazol-1-yl)pyridin-3-yl)amino)-6-((cis-2-aminocyclohexyl)amino)-5-fluoronicotinamide] as the molecule, how does the IC50 read?
Its IC50 is 0.01 to 0.05 µM.

Which IC50 does the source give for COc1cccc(-c2cncc(Nc3nc(N[C@@H]4CCCC[C@@H]4N)c(F)cc3C(N)=O)c2)n1 (relative stereo) [Example 004-230, 6-((cis-2-aminocyclohexyl)amino)-5-fluoro-2-((6-methoxy-[2,3′-bipyridin]-5′-yl)amino)nicotinamide] here?
Its IC50 is 0.01 to 0.05 µM.

For COCCNc1cc(Nc2nc(N[C@@H]3CCCC[C@@H]3N)c(F)cc2C(N)=O)cc2cccnc12 (relative stereo) [Example 004-137, 6-(cis-2-aminocyclohexylamino)-5-fluoro-2-((8-(2-methoxyethylamino)quinolin-6-yl)-amino)nicotinamide], which IC50 is on record?
The IC50 was < 0.01 µM.

C[C@H](N)[C@@H](CC1CC1)Nc1nc(Nc2cccc3c2c(F)nn3CC(F)F)c(C(N)=O)cc1F [Example 006-492, 6-(((2R,3S)-3-amino-1-cyclopropylbutan-2-yl)amino)-2-((1-(2,2-difluoroethyl)-3-fluoro-1H-indazol-4-yl)amino)-5-fluoronicotinamide] was tested. Which IC50 did it give?
The IC50 was 0.01 to 0.05 µM.

For Cc1cc(Nc2nc(NC3CCCCC3N)c(F)cc2C(N)=O)c(F)cn1 (stereo not drawn) [Example 002-164], which IC50 is on record?
The IC50 was 0.05 to 0.1 µM.

For NC(=O)c1cc(F)c(NC2CCCCC2N)nc1Nc1cncc(NC(=O)c2ccc(Cl)cc2Cl)c1 (stereo not drawn) [Example 027-018], which IC50 is on record?
Its IC50 is 0.05 to 0.1 µM.

With COCCn1cc2c(Nc3nc(NC4CCCCC4N)c(F)cc3C(N)=O)cccc2n1 (stereo not drawn) [Example 002-034] as the molecule, how does the IC50 read?
Its IC50 is < 0.01 µM.

For NC(=O)c1cc(F)c(NC2CCCCC2N)nc1Nc1cncc(NC(=O)c2ccccc2OC(F)(F)F)c1 (stereo not drawn) [Example 027-026], which IC50 is on record?
Its IC50 is 0.05 to 0.1 µM.

Which IC50 does the source give for NC(=O)c1cc(F)c(NCc2ccncc2)nc1Nc1ccc2ncccc2c1 [Example 012-018] here?
Its IC50 is 0.1 to 1 µM.

How did the IC50 turn out when Cn1ccc(-c2cncc(Nc3nc(N[C@@H]4CCCC[C@@H]4N)c(F)cc3C(N)=O)c2)c1 (relative stereo) [Example 004-119, 6-(cis-2-aminocyclohexylamino)-5-fluoro-2-((5-(1-methyl-1H-pyrrol-3-yl)pyridin-3-yl)-amino)nicotinamide] was run?
Its IC50 is < 0.01 µM.

How did the IC50 turn out when NC(=O)c1cc(F)c(NC2CCCCC2N)nc1Nc1cncc(NC(=O)c2cccnc2)c1 (stereo not drawn) [Example 027-021] was run?
The IC50 was 0.01 to 0.05 µM.
